Reference: patent publication US12691112B2, “FGFR tyrosine kinase inhibitors for the treatment of urothelial carcinoma” (Janssen Pharmaceutica NV, priority 2019, dated 2026)
Read-outs that look alike come from different tables or passages of the source.

System: subjects with metastatic or surgically unresectable urothelial cancer
Details: all-causality
Description: Study treatment was administered on 28-day cycles. […] Patients were randomized 1:1 to 28-day cycles to the following 2 regimens until a regimen was selected for further study: Regimen 1 (10 mg once daily intermittent (7 days on/7 days); Regimen 2 (6 mg once daily continuous). Randomization was stratified according to performance status (0 to 1 vs. 2), hemoglobin value (<10 vs. ≥10 g per dl), FGFR alteration type (mutation vs. fusion), prior treatment status (chemotherapy-resistant vs. chemotherapy naïve), and disease distribution (presence or absence of visceral [liver, lung, bone]metastases). Starting dose selection was based on phase 1 efficacy and tolerability.
Based on interim analysis and pharmacokinetic-pharmacodynamic modeling of serum phosphate levels, starting dose was increased to 8 mg per day continuous (Regimen 3). Thus, after interim analysis, this became a single-arm study. […] Treatment continued until disease progression or unacceptable adverse event(s) per investigator.
Safety was evaluated based on clinical laboratory tests, physical exams, electrocardiograms, and ophthalmology examinations. Adverse events and abnormalities were assessed by investigator and graded per NCI CTCAE v.4.0
Prophylactic measures were taken to minimize risk of common adverse events related to FGFR inhibition. To reduce risk of hyperphosphatemia, a low-phosphate diet was recommended for all patients (600 to 800 mg of dietary phosphate intake per day). To reduce the risk of skin effects, the application of alcohol-free emollient moisturizing cream and avoidance of unnecessary exposure to sunlight, soap, perfumed products, and hot baths was recommended. Patients were asked to keep their fingers and toes clean and nails trimmed to reduce risk of nail effects.
Additional ophthalmology examinations were performed if clinically indicated.

Compound: COc1cc(OC)cc(N(CCNC(C)C)c2ccc3ncc(-c4cnn(C)c4)nc3c2)c1 [erdafitinib, N-(3,5-dimethoxy-phenyl)-N′-(1-methylethyl)-N-[3-(1-methyl-1H-pyrazol-4-yl)quinoxalin-6-yl]ethane-1,2-diamine]
- Conjunctivitis, grade ≥ 3 (6 mg continuous, n = 78): 1 no.
- Constipation, any grade (6 mg continuous, n = 78): 20 no.
- Constipation, grade 1 (6 mg continuous, n = 78): 10 no.
- Constipation, grade 2 (6 mg continuous, n = 78): 10 no.
- Constipation, grade ≥ 3 (6 mg continuous, n = 78): 0 no.
- Decreased appetite, any grade (6 mg continuous, n = 78): 29 no.
- Decreased appetite, grade 1 (6 mg continuous, n = 78): 12 no.
- Decreased appetite, grade 2 (6 mg continuous, n = 78): 13 no.
- Decreased appetite, grade ≥ 3 (6 mg continuous, n = 78): 4 no.
- Diarrhea, any grade (6 mg continuous, n = 78): 39 no.
- Diarrhea, grade 1 (6 mg continuous, n = 78): 24 no.
- Diarrhea, grade 2 (6 mg continuous, n = 78): 15 no.
- Diarrhea, grade ≥ 3 (6 mg continuous, n = 78): 0 no.
- Dry eye, any grade (6 mg continuous, n = 78): 6 no.
- Dry eye, grade 1 (6 mg continuous, n = 78): 3 no.
- Dry eye, grade 2 (6 mg continuous, n = 78): 2 no.
- Dry eye, grade ≥ 3 (6 mg continuous, n = 78): 1 no.
- Dry mouth, any grade (6 mg continuous, n = 78): 31 no.
- Dry mouth, grade 1 (6 mg continuous, n = 78): 23 no.
- Dry mouth, grade 2 (6 mg continuous, n = 78): 6 no.
- Dry mouth, grade ≥ 3 (6 mg continuous, n = 78): 2 no.
- Dry skin, any grade (6 mg continuous, n = 78): 18 no.
- Dry skin, grade 1 (6 mg continuous, n = 78): 10 no.
- Dry skin, grade 2 (6 mg continuous, n = 78): 8 no.
- Dry skin, grade ≥ 3 (6 mg continuous, n = 78): 0 no.
- Dysgeusia, any grade (6 mg continuous, n = 78): 10 no.
- Dysgeusia, grade 1 (6 mg continuous, n = 78): 6 no.
- Dysgeusia, grade 2 (6 mg continuous, n = 78): 4 no.
- Dysgeusia, grade ≥ 3 (6 mg continuous, n = 78): 0 no.
- Dyspepsia, any grade (6 mg continuous, n = 78): 9 no.
- Dyspepsia, grade 1 (6 mg continuous, n = 78): 6 no.
- Dyspepsia, grade 2 (6 mg continuous, n = 78): 3 no.
- Dyspepsia, grade ≥ 3 (6 mg continuous, n = 78): 0 no.
- Dyspnea, any grade (6 mg continuous, n = 78): 6 no.
- Dyspnea, grade 1 (6 mg continuous, n = 78): 1 no.
- Dyspnea, grade 2 (6 mg continuous, n = 78): 3 no.
- Dyspnea, grade ≥ 3 (6 mg continuous, n = 78): 2 no.
- Fatigue, any grade (6 mg continuous, n = 78): 20 no.
- Fatigue, grade 1 (6 mg continuous, n = 78): 8 no.
- Fatigue, grade 2 (6 mg continuous, n = 78): 8 no.
- Fatigue, grade ≥ 3 (6 mg continuous, n = 78): 4 no.
- Hand-foot syndrome, any grade (6 mg continuous, n = 78): 13 no.
- Hand-foot syndrome, grade 1 (6 mg continuous, n = 78): 4 no.
- Hand-foot syndrome, grade 2 (6 mg continuous, n = 78): 9 no.
- Hand-foot syndrome, grade ≥ 3 (6 mg continuous, n = 78): 0 no.
- Hematuria, any grade (6 mg continuous, n = 78): 6 no.
- Hematuria, grade 1 (6 mg continuous, n = 78): 5 no.
- Hematuria, grade 2 (6 mg continuous, n = 78): 0 no.
- Hematuria, grade ≥ 3 (6 mg continuous, n = 78): 1 no.
- Hyperphosphatemia, any grade (6 mg continuous, n = 78): 52 no.
- Hyperphosphatemia, grade 1 (6 mg continuous, n = 78): 44 no.
- Hyperphosphatemia, grade 2 (6 mg continuous, n = 78): 8 no.
- Hyperphosphatemia, grade ≥ 3 (6 mg continuous, n = 78): 0 no.
- Hypomagnesemia, any grade (6 mg continuous, n = 78): 6 no.
- Hypomagnesemia, grade 1 (6 mg continuous, n = 78): 6 no.
- Hypomagnesemia, grade 2 (6 mg continuous, n = 78): 0 no.
- Hypomagnesemia, grade ≥ 3 (6 mg continuous, n = 78): 0 no.
- Hyponatremia, any grade (6 mg continuous, n = 78): 7 no.
- Hyponatremia, grade 1 (6 mg continuous, n = 78): 2 no.
- Hyponatremia, grade 2 (6 mg continuous, n = 78): 0 no.
- Hyponatremia, grade ≥ 3 (6 mg continuous, n = 78): 5 no.
- Insomnia, any grade (6 mg continuous, n = 78): 8 no.
- Insomnia, grade 1 (6 mg continuous, n = 78): 4 no.
- Insomnia, grade 2 (6 mg continuous, n = 78): 2 no.
- Insomnia, grade ≥ 3 (6 mg continuous, n = 78): 2 no.
- Lacrimation increased, any grade (6 mg continuous, n = 78): 13 no.
- Lacrimation increased, grade 1 (6 mg continuous, n = 78): 10 no.
- Lacrimation increased, grade 2 (6 mg continuous, n = 78): 3 no.
- Lacrimation increased, grade ≥ 3 (6 mg continuous, n = 78): 0 no.
- Nail dystrophy, any grade (6 mg continuous, n = 78): 7 no.
- Nail dystrophy, grade 1 (6 mg continuous, n = 78): 6 no.
- Nail dystrophy, grade 2 (6 mg continuous, n = 78): 1 no.
- Nail dystrophy, grade ≥ 3 (6 mg continuous, n = 78): 0 no.
- Nausea, any grade (6 mg continuous, n = 78): 16 no.
- Nausea, grade 1 (6 mg continuous, n = 78): 11 no.
- Nausea, grade 2 (6 mg continuous, n = 78): 4 no.
- Nausea, grade ≥ 3 (6 mg continuous, n = 78): 1 no.
- Onycholysis, any grade (6 mg continuous, n = 78): 13 no.
- Onycholysis, grade 1 (6 mg continuous, n = 78): 2 no.
- Onycholysis, grade 2 (6 mg continuous, n = 78): 6 no.
- Onycholysis, grade ≥ 3 (6 mg continuous, n = 78): 5 no.
- Onychomadesis, any grade (6 mg continuous, n = 78): 8 no.
- Onychomadesis, grade 1 (6 mg continuous, n = 78): 2 no.
- Onychomadesis, grade 2 (6 mg continuous, n = 78): 6 no.
- Onychomadesis, grade ≥ 3 (6 mg continuous, n = 78): 0 no.
- Oropharyngeal pain, any grade (6 mg continuous, n = 78): 8 no.
- Oropharyngeal pain, grade 1 (6 mg continuous, n = 78): 5 no.
- Oropharyngeal pain, grade 2 (6 mg continuous, n = 78): 3 no.
- Oropharyngeal pain, grade ≥ 3 (6 mg continuous, n = 78): 0 no.
- Pain in extremity, any grade (6 mg continuous, n = 78): 9 no.
- Pain in extremity, grade 1 (6 mg continuous, n = 78): 2 no.
- Pain in extremity, grade 2 (6 mg continuous, n = 78): 6 no.
- Pain in extremity, grade ≥ 3 (6 mg continuous, n = 78): 1 no.
- Paronychia, any grade (6 mg continuous, n = 78): 12 no.
- Paronychia, grade 1 (6 mg continuous, n = 78): 2 no.
- Paronychia, grade 2 (6 mg continuous, n = 78): 10 no.
- Paronychia, grade ≥ 3 (6 mg continuous, n = 78): 0 no.
- Peripheral edema, any grade (6 mg continuous, n = 78): 6 no.
- Peripheral edema, grade 1 (6 mg continuous, n = 78): 2 no.
- Peripheral edema, grade 2 (6 mg continuous, n = 78): 3 no.
- Peripheral edema, grade ≥ 3 (6 mg continuous, n = 78): 1 no.
- Pyrexia, any grade (6 mg continuous, n = 78): 14 no.
- Pyrexia, grade 1 (6 mg continuous, n = 78): 8 no.
- Pyrexia, grade 2 (6 mg continuous, n = 78): 3 no.
- Pyrexia, grade ≥ 3 (6 mg continuous, n = 78): 3 no.
- Retinal detachment, any grade (6 mg continuous, n = 78): 8 no.
- Retinal detachment, grade 1 (6 mg continuous, n = 78): 5 no.
- Retinal detachment, grade 2 (6 mg continuous, n = 78): 3 no.
- Retinal detachment, grade ≥ 3 (6 mg continuous, n = 78): 0 no.
- Stomatitis, any grade (6 mg continuous, n = 78): 33 no.
- Stomatitis, grade 1 (6 mg continuous, n = 78): 13 no.
- Stomatitis, grade 2 (6 mg continuous, n = 78): 13 no.
- Stomatitis, grade ≥ 3 (6 mg continuous, n = 78): 7 no.
- Urinary tract infection, any grade (6 mg continuous, n = 78): 13 no.
- Urinary tract infection, grade 1 (6 mg continuous, n = 78): 0 no.
- Urinary tract infection, grade 2 (6 mg continuous, n = 78): 9 no.
- Urinary tract infection, grade ≥ 3 (6 mg continuous, n = 78): 4 no.
- Vision blurred, any grade (6 mg continuous, n = 78): 5 no.
- Vision blurred, grade 1 (6 mg continuous, n = 78): 3 no.
- Vision blurred, grade 2 (6 mg continuous, n = 78): 1 no.
- Vision blurred, grade ≥ 3 (6 mg continuous, n = 78): 1 no.
- Vomiting, any grade (6 mg continuous, n = 78): 11 no.
- Vomiting, grade 1 (6 mg continuous, n = 78): 9 no.
- Vomiting, grade 2 (6 mg continuous, n = 78): 2 no.
- Vomiting, grade ≥ 3 (6 mg continuous, n = 78): 0 no.
- Weight decreased, any grade (6 mg continuous, n = 78): 8 no.
- Weight decreased, grade 1 (6 mg continuous, n = 78): 4 no.
- Weight decreased, grade 2 (6 mg continuous, n = 78): 2 no.
- Weight decreased, grade ≥ 3 (6 mg continuous, n = 78): 2 no.
- Abdominal pain, any grade (8 mg continuous, n = 99): 8 no.
- Abdominal pain, grade 1 (8 mg continuous, n = 99): 5 no.
- Abdominal pain, grade 2 (8 mg continuous, n = 99): 2 no.
- Abdominal pain, grade ≥ 3 (8 mg continuous, n = 99): 1 no.
- Alanine aminotransferase increased, any grade (8 mg continuous, n = 99): 17 no.
- Alanine aminotransferase increased, grade 1 (8 mg continuous, n = 99): 13 no.
- Alanine aminotransferase increased, grade 2 (8 mg continuous, n = 99): 2 no.
- Alanine aminotransferase increased, grade ≥ 3 (8 mg continuous, n = 99): 2 no.
- Alopecia, any grade (8 mg continuous, n = 99): 29 no.
- Alopecia, grade 1 (8 mg continuous, n = 99): 23 no.
- Alopecia, grade 2 (8 mg continuous, n = 99): 6 no.
- Alopecia, grade ≥ 3 (8 mg continuous, n = 99): 0 no.
- Anemia, any grade (8 mg continuous, n = 99): 20 no.
- Anemia, grade 1 (8 mg continuous, n = 99): 9 no.
- Anemia, grade 2 (8 mg continuous, n = 99): 7 no.
- Anemia, grade ≥ 3 (8 mg continuous, n = 99): 4 no.
- Arthralgia, any grade (8 mg continuous, n = 99): 8 no.
- Arthralgia, grade 1 (8 mg continuous, n = 99): 5 no.
- Arthralgia, grade 2 (8 mg continuous, n = 99): 3 no.
- Arthralgia, grade ≥ 3 (8 mg continuous, n = 99): 0 no.
- Aspartate aminotransferase increased, any grade (8 mg continuous, n = 99): 10 no.
- Aspartate aminotransferase increased, grade 1 (8 mg continuous, n = 99): 8 no.
- Aspartate aminotransferase increased, grade 2 (8 mg continuous, n = 99): 2 no.
- Aspartate aminotransferase increased, grade ≥ 3 (8 mg continuous, n = 99): 0 no.
- Asthenia, any grade (8 mg continuous, n = 99): 20 no.
- Asthenia, grade 1 (8 mg continuous, n = 99): 2 no.
- Asthenia, grade 2 (8 mg continuous, n = 99): 11 no.
- Asthenia, grade ≥ 3 (8 mg continuous, n = 99): 7 no.
- Back pain, any grade (8 mg continuous, n = 99): 5 no.
- Back pain, grade 1 (8 mg continuous, n = 99): 4 no.
- Back pain, grade 2 (8 mg continuous, n = 99): 1 no.
- Back pain, grade ≥ 3 (8 mg continuous, n = 99): 0 no.
- Blood creatinine increased, any grade (8 mg continuous, n = 99): 10 no.
- Blood creatinine increased, grade 1 (8 mg continuous, n = 99): 5 no.
- Blood creatinine increased, grade 2 (8 mg continuous, n = 99): 5 no.
- Blood creatinine increased, grade ≥ 3 (8 mg continuous, n = 99): 0 no.
- Conjunctivitis, any grade (8 mg continuous, n = 99): 13 no.
- Conjunctivitis, grade 1 (8 mg continuous, n = 99): 6 no.
- Conjunctivitis, grade 2 (8 mg continuous, n = 99): 7 no.
- Conjunctivitis, grade ≥ 3 (8 mg continuous, n = 99): 0 no.
- Constipation, any grade (8 mg continuous, n = 99): 28 no.
- Constipation, grade 1 (8 mg continuous, n = 99): 19 no.
- Constipation, grade 2 (8 mg continuous, n = 99): 8 no.
